This is an account of results in ChEMBL document CHEMBL1201862, “PubChem BioAssay data set” (2004).

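Values below derive from 48-hour exposures of cells grown in 96-well plates, with endpoints linearly interpolated between the two concentrations bracketing the appropriate inhibition level. Abbreviation: GI50, concentration required for 50% inhibition of growth.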 Active and inactive are the calls of the source. Rule as the data show it: active = GI50 up to about 1.1 µM and inactive = higher.

Among the test systems are COLO 205; EKVX; M14; Malme-3M; NCI-H460; NCI-H522; OVCAR-5; OVCAR-8; RPMI-8226; RXF 393; SF-295; SF-539; SK-MEL-5; SN12C; SNB-19; SNB-75; SR; SW-620; U-251; UACC-257.
Common to all, as to test: inhibition of tumour cell growth, NCI panel, 48 h

For the molecule `CCOP1(=O)C=C(Sc2ccc([N+](=O)[O-])cc2[N+](=O)[O-])C(C)(C)O1` (stereo not given), the GI50 was 10.5 µM (inactive) with COLO 205; 14.4 µM (inactive) with EKVX; 11.9 µM (inactive) with M14; 12 µM (inactive) in the test with Malme-3M; 21 µM (inactive) in the test with NCI-H460; 3.64 µM (inactive) with NCI-H522. For the same molecule, the GI50 in the test with OVCAR-5 was 21.2 µM (inactive); in the test with OVCAR-8, 16.7 µM (inactive); with RPMI-8226, 5.25 µM (inactive); with RXF 393, 17.9 µM (inactive); with SF-295, 17.9 µM (inactive); in the test on SF-539 it was 11.7 µM (inactive). The GI50 in the test on SK-MEL-5 was 9.86 µM (inactive); with SN12C, 10.3 µM (inactive); with SNB-19 it was 27.6 µM (inactive); in the test with SNB-75, 19.8 µM (inactive); with SR, 3.59 µM (inactive); in the test on SW-620, 11.6 µM (inactive). The GI50 was 14.9 µM (inactive) in the test with U-251 and 12.3 µM (inactive) in the test on UACC-257.
For the molecule `COc1ccccc1NC(=O)O/N=C(/Cl)C(C)C`, the GI50 is 2.4 µM (inactive) in the test with COLO 205; 16.1 µM (inactive) in the test with EKVX; 5.9 µM (inactive) with M14; 2.78 µM (inactive) with Malme-3M; 19.3 µM (inactive) with NCI-H460; 1.81 µM (inactive) in the test with NCI-H522. Also, the GI50 in the test on OVCAR-5 is 16.3 µM (inactive); with OVCAR-8 it was 15 µM (inactive); with RPMI-8226 it was 2.1 µM (inactive); in the test on RXF 393 it was 14.9 µM (inactive); in the test with SF-295, 15.2 µM (inactive); in the test on SF-539, 19.5 µM (inactive). In addition, the GI50 with SK-MEL-5 was 11.8 µM (inactive); in the test with SN12C, 15.4 µM (inactive); with SNB-19, 30.9 µM (inactive); with SNB-75, 0.889 µM (active); with SR it was 1.91 µM (inactive); in the test with SW-620 it was 1.82 µM (inactive). Further, the GI50 is 16.7 µM (inactive) with U-251 and 13.7 µM (inactive) with UACC-257.
Take `COc1ccc2[nH]c3c(C)c4ccnc(NCCCN(C)CCCN)c4c(C)c3c2c1`: the GI50 in the test with COLO 205 is 0.0778 µM (active); in the test with EKVX, 0.225 µM (active); in the test with M14, 0.171 µM (active); with Malme-3M, 0.31 µM (active); in the test on NCI-H460, 0.091 µM (active); in the test with NCI-H522 it was 0.0189 µM (active). The GI50 with OVCAR-5 was 0.176 µM (active); with OVCAR-8 it was 0.162 µM (active); in the test on RPMI-8226 it was 0.281 µM (active); in the test on RXF 393, 0.0622 µM (active); in the test on SF-295 it was 0.214 µM (active); with SF-539, 0.118 µM (active). For the same molecule, the GI50 in the test on SK-MEL-5 was 0.178 µM (active); with SN12C, 0.0274 µM (active); in the test on SNB-19, 0.213 µM (active); in the test on SNB-75 it was 0.0257 µM (active); with SR, 0.186 µM (active); in the test on SW-620 it was 0.102 µM (active). Further, the GI50 in the test on U-251 is 0.0803 µM (active); in the test with UACC-257 it was 0.979 µM (active).
For the molecule `O=C1NC(Cc2ccccc2)C(=O)N2CCCC12` (stereo not given), the GI50 in the test with COLO 205, in the test on EKVX, in the test with M14, in the test on Malme-3M, with NCI-H460 and with NCI-H522 was > 100 µM (inactive) each time. Also, the GI50 with OVCAR-5, in the test on OVCAR-8, in the test with RPMI-8226, with RXF 393, with SF-295 and in the test with SF-539 was > 100 µM (inactive) in each case. Besides, the GI50 in the test with SK-MEL-5, in the test on SN12C, with SNB-19, in the test on SNB-75, in the test with SR and with SW-620 was > 100 µM (inactive) in each case. In addition, the GI50 in the test with U-251 and in the test with UACC-257 was > 100 µM (inactive) each time.
